Entries after “also recorded” stand apart in the source; their conditions may differ. Read-outs that look alike come from different tables or passages of the source.
Experiments:
WI-38 cells [1] = experiment: Propidium iodide (PI) cell-death imaging upon H2O2 stress; format: cell-based, human; conditions: for Assay 7: H2O2-resistant, at 10 uM, validated by propidium iodide (PI) cell-death imaging: w/H2O2, 3 hrs/4 hrs/5 hrs, YES/NO; for cytotoxicity at 10 µM: Homo sapiens, WI-38
WI-38 cells [2] = experiment: Long-term effects on cell viability (5 days, ATP; morphology, PI imaging); format: cell-based; conditions: 10 μM; for Luminescence signal for ATP measurement, day-1 Average / Luminescence signal for ATP measurement, day-2 Average / Luminescence signal for ATP measurement, day-3 Average / Luminescence signal for ATP measurement, day-4 Average / Luminescence signal for ATP measurement, day-5 Average / viability at 10 µM: Batch 1; for Luminescence signal for ATP measurement, day-1 Average / Luminescence signal for ATP measurement, day-2 Average / Luminescence signal for ATP measurement, day-3 Average / Luminescence signal for ATP measurement, day-4 Average / Luminescence signal for ATP measurement, day-5 Average: n = 6, day-0 luminescence = 320956 ± 24708; for viability at 10 µM: Homo sapiens, WI-38, 120 h, DMSO ctrl = 100.0%, read-out: ATP luminescence by day-5 normalized; for Luminescence signal for ATP measurement, day-5 Average / viability at 10 µM: day-5; for O = Potential toxicity / Q = Potential toxicity / Reduction of ATP content after 5 days of continuous incubation: human, 5 days;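 on Luminescence signal for ATP measurement, day-2 Average: compounds at 10 µM with ATP read daily over 5 days of treatment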;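 on Luminescence signal for ATP measurement, day-3 Average: compounds at 10 µM with ATP read daily over 5 days of treatment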;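 on Luminescence signal for ATP measurement, day-4 Average: compounds at 10 µM with ATP read daily over 5 days of treatment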;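 on Luminescence signal for ATP measurement, day-5 Average: compounds at 10 µM with ATP read daily over 5 days of treatment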
Method: In addition, cell death was scored by PI-imaging on day 2 and day 5 of treatment.
Applicants introduced molecules (at 10 uM final concentration) to WI-38 fibroblasts and then assayed cell viability (through ATP measurement) everyday, during a course of 5 days of continuous treatment. […] Applicants also examined the morphology and scored cell death (propidium iodide staining) for cells treated with the above molecules. Of these 14 molecules, some appeared to cause cell toxicity. […] Despite the observed long-term toxicity, these molecules are still interesting as they may act as anti-tumor agents in vivo, should they have more pronounced cytotoxicity on highly proliferative tumor cells. When cells were incubated with these molecules for ˜24 hrs and then subject to hydrogen peroxide for 3 hrs, these molecules are all protective. […] Some of these small molecules may be toxic by themselves under certain conditions, but by inducing protective mechanisms, they may trigger “hormesis” and therefore protect cells from oxidative stress.

WI-38 cells [3] = conditions: for Percentage of propidium iodide-positive dead cells (no H2O2 stress treatment), at 10 uM: negative control 0.41% ± 0.23%
Method: WI-38 cells were seeded on 384-well plates for 24 hrs and then incubated with small molecules for 24 hrs. […] Images were collected on an INCell Analyzer 2000 (GE) and analyzed with the Developer software.

WI-38 cells [4] = experiment: MMS resistance assay; format: cell-based, human; conditions: for fold induction at 10 µM: Homo sapiens, 12 h, normalized ATP measurement; for Assay 3: MMS-resistant / Assay 5: Triple resistant: YES/NO; for Assay 3: MMS-resistant: * indicates partial; for Assay 5: Triple resistant: H2O2, cadmium and MMS
Procedure, shortened: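 WI-38 cells were given compounds at five final concentrations (0.25–20 μM) in triplicate, followed by cadmium or MMS for 12 h. For MMS, medium was switched from OptiMEM+10% FBS to serum-free DMEM+2% BSA when compounds were added, 24 h before stressor. Two independent assays were run, analysed by global variance t-test.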

mTOR = mTOR inhibition (RPS6 phosphorylation status), In-Cell Western; format: cell-based, human; conditions: for mTOR down-regulation by p-RPS6 assays: Assay 14(q), at 5 uM, 10 uM & 20 uM
Method: In-Cell Western assays were performed, following a standard immuno-staining protocol. Briefly, WI-38 cells were treated with small molecules for 24 hrs, and then processed and incubated with primary antibody cocktail (Cell Signaling, mouse anti-RPS, 1:25; rabbit-anti-pRPS6-(Ser-235/236), 1:100) overnight at 4° C. Next day, samples were processed and incubated with fluorophore-conjugated secondary antibodies (Cell Signaling, DyLight 680-goat anti-mouse, 1:500; DyLight 800-goat anti-rabbit, 1:1,000). Images were collected on an Odyssey Imager (LI-COR) and analyzed with the Image Studio Lite software (version 5.0.21).
Mammalian target of rapamycin (mTOR) is a crucial regulator of cell growth and metabolism and has been implicated in aging and many diseases, including cancer, diabetes and neurological diseases (Dazert and Hall, 2011; Zoncu et al., 2011). […] In addition, the anti-diabetes drug metformin (Kalender et al., 2010), as well as other AMPK activators such as 2-deoxy-D-glucose (Inoki et al., 2003) and AICAR (Shaw et al., 2004), could inhibit mTORC1. Applicants examined the effects of our molecules (at three doses, 5 μM, 10 μM and 20 μM) on the phosphorylation status of ribosomal protein S6 (RPS6), a readout of mTOR activity, to ask whether they could inhibit mTOR.
In-Cell Western assays were performed, following the same procedures to analyze DNA-damage markers. WI-38 cells were incubated with small molecules for 24 hrs, and then processed and incubated with primary antibody cocktail (mouse anti-RPS, 1:25; rabbit-anti-pRPS6, 1:100) overnight at 4° C. Next day, samples were processed and incubated with fluorophore-conjugated secondary antibodies (goat anti-mouse, 1:500; goat anti-rabbit, 1:1,000) in antibody dilution buffer. Images were collected on an Odyssey Imager (LI-COR) and analyzed with the Image Studio Lite software.

WI-38 cells [5] = conditions: for No H2O2 stress treatment, at 10 uM (fold change): normalized ATP measurement; for Assay 1: H2O2-resistant: YES/NO, if NO, possibly due to repeated freezing/thawing of stocks
[6] = H2O2 3 hrs, 10 uM, n = 6, negative control 5.44% ± 0.79%, read-out: Percentage of propidium iodide-positive dead cells (under H2O2 stress treatment), 3 hrs
[7] = H2O2 4 hrs, 10 uM, n = 6, negative control 16.81% ± 1.42%, read-out: Percentage of propidium iodide-positive dead cells (under H2O2 stress treatment), 4 hrs
[8] = H2O2 5 hrs, 10 uM, n = 6, negative control 22.50% ± 1.53%, read-out: Percentage of propidium iodide-positive dead cells (under H2O2 stress treatment), 5 hrs
[9] = pre-treatment at 10 uM, 3.5 hours of H2O2, DMSO control 27.4% ± 6.5%, */**/*** = reduced by one/two/three standard deviations, read-out: Percentage of propidium iodide-positive dead cells (under H2O2 stress treatment), at 10 uM
[10] = Exp. 1, WI-38 cells, read-out: Exp. 1, under MMS stress treatment, at 10 uM (fold change)
[11] = Exp. 2, WI-38 cells, read-out: Exp. 2, under MMS stress treatment, at 10 uM (fold change)
[12] = score in summary of 38 core set hits
[13] = WI-38 cells, 10 μM, (*) = compromised ability to protect cells from H2O2, could be due to stability issue
[14] = asterisks indicate the loss of the ability to protect cells from H2O2 over time
[15] = derived from dose response curves, 0.6-20 uM, H2O2-resistance of WI-38 cells
[16] = read-out: Est. ED50, dose response 0.6-20 μM, H2O2-resistance
[17] = Exp. 3, at 5 μM, In-Cell Western, n=4

| SMILES | Assay 7: H2O2-resistant, at 10 uM, validated by propidium iodide (PI) cell-death imaging (WI-38 cells [1]; 10 uM) | cytotoxicity at 10 µM (WI-38 cells [1]; [6]) [%] | cytotoxicity at 10 µM (WI-38 cells [1]; [9]) [%] | Luminescence signal for ATP measurement, day-1 Average (WI-38 cells [2]) | Luminescence signal for ATP measurement, day-2 Average (WI-38 cells [2]) | Luminescence signal for ATP measurement, day-3 Average (WI-38 cells [2]) | Luminescence signal for ATP measurement, day-4 Average (WI-38 cells [2]) | Luminescence signal for ATP measurement, day-5 Average (WI-38 cells [2]) | viability at 10 µM (WI-38 cells [2]) [%] | O = Potential toxicity (WI-38 cells [2]) | Q = Potential toxicity (WI-38 cells [2]) | fold induction at 10 µM (WI-38 cells [4]; [10]) | fold induction at 10 µM (WI-38 cells [4]; [11]) | B = MMS resistant (WI-38 cells [4]; [12]) | B = MMS resistant (WI-38 cells [4]; summary score) | D = Triple resistant (WI-38 cells [4]; summary score) | G = mTOR down-regulation (mTOR; 2-point score) | G = mTOR down-regulation (mTOR; summary score) | H2O2-resistant (WI-38 cells [5]; [13]) | No H2O2 stress treatment, at 10 uM (fold change) (WI-38 cells [5]; WI-38 cells) | further results |
| --- | --- | --- | --- | --- | --- | --- | --- | --- | --- | --- | --- | --- | --- | --- | --- | --- | --- | --- | --- | --- | --- |
| NS(=O)(=O)c1ccc(NC(=O)c2ccc([N+](=O)[O-])o2)cc1 [Gr-1A] | YES | 1.44 | 22.6 | 477461 | 610735 | 739676 | 878508 | 943836 | 91.9 | 0 | 0 | 0.72 | 2.42 | 0 | 1 | 2 | 0 | 0 | YES | 0.72 | cytotoxicity at 10 µM (WI-38 cells [1]; [7]): 3.18%; cytotoxicity at 10 µM (WI-38 cells [1]; [8]): 7.49%; Reduction of ATP content after 5 days of continuous incubation (WI-38 cells [2]): more than 40%; Percentage of propidium iodide-positive dead cells (no H2O2 stress treatment), at 10 uM (WI-38 cells [3]): 0.79% ± 0.36%,; Assay 3: MMS-resistant (WI-38 cells [4]): YES; Assay 5: Triple resistant (WI-38 cells [4]): YES; Assay 1: H2O2-resistant (WI-38 cells [5]): YES; H2O2-resistant (WI-38 cells [5]; [14]): YES; EC50 (WI-38 cells [5]; [15]): 6 µM; EC50 (WI-38 cells [5]; [16]): 2.53 µM |
| O=C(Nc1cc(C(F)(F)F)ccc1Cl)c1ccc([N+](=O)[O-])o1 [Gr-1B] | YES | 2.69 | 38.1 | 442035 | 577575 | 726850 | 977658 | 1021113 | 99.4 | 1 | 0 | 0.7 | 3.03 | 0 | 0 | 0 | 0 | 0 | YES | 0.94 | Reduction of ATP content after 5 days of continuous incubation (WI-38 cells [2]): more than 40%; PI cell-death imaging without H2O2 (indicating potential toxicity) (WI-38 cells [3]; Assay 8(k), without H2O2, at 10 uM): YES; PI-positive dead cells under normal conditions (WI-38 cells [3]; WI-38, no H2O2, control 0.4±0.2%): 1.0%±0.3%; Percentage of propidium iodide-positive dead cells (no H2O2 stress treatment), at 10 uM (WI-38 cells [3]): 1.03% ± 0.34%,; Assay 3: MMS-resistant (WI-38 cells [4]): NO *; Assay 5: Triple resistant (WI-38 cells [4]): YES; Assay 1: H2O2-resistant (WI-38 cells [5]): YES; H2O2-resistant (WI-38 cells [5]; [14]): YES; EC50 (WI-38 cells [5]; [15]): 6.2 µM; EC50 (WI-38 cells [5]; [16]): 2.65 µM |
| O=C(NCc1cccnc1)/C(=C\c1cccc(Oc2ccccc2)c1)S(=O)(=O)c1ccccc1 [Gr-7A] | YES | 2.78 | 9.9 | 463265 | 192116 | 67526 | 48480 | 44670 | 4.4 | 0 | 1 | 0.96 | 2.21 | 0 | 0 | 0 | 2 | 2 | YES (*) | 0.78 | cytotoxicity at 10 µM (WI-38 cells [1]; [7]): 2.32%; cytotoxicity at 10 µM (WI-38 cells [1]; [8]): 3.52%; mTOR down-regulation by p-RPS6 assays (mTOR): YES; Exp. 1, normalized reduction in p-RPS6/RPS6 ratio (mTOR; Exp. 1, In-Cell Western, n=4): ~61% (−), at 20 μM; Exp. 1, normalized reduction in p-RPS6/RPS6 ratio (mTOR; Exp. 1, at 10 μM, In-Cell Western, n=4): ~60% (−), at 10 μM;; Exp. 2, normalized reduction in p-RPS6/RPS6 ratio (mTOR; Exp. 2, at 10 μM, In-Cell Western, n=4): ~75% (−), at 10 μM; Exp. 3, normalized reduction in p-RPS6/RPS6 ratio (mTOR; Exp. 3, In-Cell Western, n=4): ~92% (−), at 20 μM; Exp. 3, normalized reduction in p-RPS6/RPS6 ratio (mTOR; [17]): ~50% (−), at 5 μM;; Exp. 3, normalized reduction in p-RPS6/RPS6 ratio (mTOR; Exp. 3, at 10 μM, In-Cell Western, n=4): ~89% (−), at 10 μM;; mTOR inhibition (p-RPS6/RPS6), qualitative (mTOR; In-Cell Western): mTOR-inhibiting activities; also recorded: consistently reduced the ratios; Assay 1: H2O2-resistant (WI-38 cells [5]): YES; H2O2-resistant (WI-38 cells [5]; [14]): YES (*); EC50 (WI-38 cells [5]; [15]): 16.1 µM; EC50 (WI-38 cells [5]; [16]): 58.4 µM |
| O=C(NCc1cccnc1)/C(=C/c1ccc(-c2ccc(Cl)cc2)o1)S(=O)(=O)c1ccccc1 [Gr-7C] | YES | 0.82 | 12.5 | 378655 | 140712 | 84446 | 72490 | 127440 | 12.4 | 0 | 1 | 1.14 | 1.39 | 0 | 0 | 0 | 2 | 2 | YES | 0.87 | cytotoxicity at 10 µM (WI-38 cells [1]; [7]): 2.36%; cytotoxicity at 10 µM (WI-38 cells [1]; [8]): 3.73%; mTOR down-regulation by p-RPS6 assays (mTOR): YES; Exp. 1, normalized reduction in p-RPS6/RPS6 ratio (mTOR; Exp. 1, In-Cell Western, n=4): ~80% (−), at 20 μM; Exp. 3, normalized reduction in p-RPS6/RPS6 ratio (mTOR; Exp. 3, In-Cell Western, n=4): ~40% (−), at 20 μM; Exp. 3, normalized reduction in p-RPS6/RPS6 ratio (mTOR; [17]): ~38% (−), at 5 μM;; mTOR inhibition (p-RPS6/RPS6), qualitative (mTOR; In-Cell Western): consistently reduced the ratios; Assay 1: H2O2-resistant (WI-38 cells [5]): YES; H2O2-resistant (WI-38 cells [5]; [14]): YES; EC50 (WI-38 cells [5]; [15]): 14.2 µM; EC50 (WI-38 cells [5]; [16]): 2.59 µM |
